Measured values as given in patent US9675642B2, “Engineered dendritic cells and uses for the treatment of cancer” (Intrexon Corporation, priority 2007, dated 2017).

Legend:
[1] = tested on: human and mouse cell lines and primary dendritic cells transduced with recombinant adenoviral vector carrying the genes for IL12; experiment: IL12 induction in cell lines and primary DC transduced with IL12 adenoviral vector; type: cell-based; conditions: in vitro
[2] = tested on: human dendritic cells transduced with adenoviral vector Ad-RTS-mIL-12; experiment: IL-12 production by human DC transduced with Ad-RTS-mIL-12; type: cell-based; conditions: 3 hour viral adsorption at MOI of 500
Description: The activator drug (“AD” or “activating ligand”) induced IL-12 expression in these transduced human dendritic cells.

[3] = tested on: B16 melanomas; experiment: Ligand route/dose comparison with i.t. DC.SP1-IL12 in B16 melanoma; type: in vivo, B6 mice
Description: B16 melanomas were established s.c. for 7 days in the right flanks of syngenic B6 mice. On day 7, 10^6 DC.SP1-IL12 (optimal switch identified in FIG. 10 comparison) were injected intratumorally (i.t.). Activating ligand (RG-115932) was provided either as an injection i.p., via oral gavage in Labrasol, or via drug-containing chow provided ad libitum beginning on the day preceding DC injection (and daily thereafter for 6 days). Each cohort contained 5 animals, with tumor growth monitored every 3-4 days and reported as mean size (mm^2 based on the product of orthogonal measurements). The treatment for each cohort is described below.

[4] = tested on: RTS; experiment: Activation of the RTS by ligand enantiomer; conditions: R enantiomer versus racemic mixture
Description: DC-SP1 i.t. therapy using i.p. administered ligand yielded a clear ligand dose-tumor inhibition response pattern, with optimal anti-tumor effects at ligand doses >30 mg/kg/day. […] 20-22.5 mg/kg/day of the active enantiomer. […] The availability of oral administration of the ligand would ease the burden of the treatment on patients.
The recombinant DNA used as the recombinant adenoviral vector allows the expression of human IL-12 under the control of the RheoSwitch® Therapeutic System (RTS). The RTS comprises a bicistronic message expressed from the human Ubiquitin C promoter and codes for two fusion proteins: Gal4-EcR and VP16-RXR. Gal4-EcR is a fusion between the DNA binding domain (amino acids 1-147) of yeast Gal4 and the DEF domains of the ecdysone receptor from the insect Choristoneura fumiferana. […] VP16-RXR is a fusion between the transcription activation domain of HSV-VP16 and the EF domains of a chimeric RXR derived from human and locust sequences. […]

[5] = tested on: B16 melanoma; experiment: DC dose and duration of ligand administration in B16 melanoma; type: in vivo, B6 mice
Description: Tumor bearing mice were given a single intratumoral injection of AdDCs at doses of 10^5, 10^6, and 10^7 cells and daily i.p. injection of Activating Ligand at a single dose of 30 mg/kg/day for 6 days or 13 days beginning on the day of the injection of 10^7 cells. […] There was no effect of the Activating Ligand alone (without AdDCs) on tumor growth.
In a similar experiment to FIG. 12, the Activating Ligand was administered by oral gavage for 9 and 12 days. The anti-tumor dose response with an oral formulation of the Activating Ligand at different doses in Labrasol was assessed.
B16 melanomas were established s.c. for 7 days in the right flanks of 5 syngeneic B6 mice. On day 7, DC.SP1-IL-12 (bone marrow derived DC infected at an MOI of 100 using the SP1 optimal switch) were injected intratumorally (i.t.) at doses of 10E5, 10E6 or 10E7. RG-115932 was provided by i.p. injection beginning on the day of DC injection (and daily thereafter for either 6 days or 13 days). Each cohort contained 5 animals, with tumor growth monitored every 3-4 days and reported as mean size (mm squared based on the product of orthogonal measurements). Individual animal weights were also assessed at the time of tumor measurements (FIG. 13). All animals rendered free of disease by any therapy were rechallenged on day 50 (post-initial B16 tumor inoculation) with 10E5 B16 melanoma cells on the opposite flank (left flank) of the original tumor and with 10E5 MC38 colon carcinoma cells on the right flank. Tumor growth was monitored every 3-4 days and compared against growth observed in naïve (untreated) animals (see FIG. 12).

[6] = tested on: mouse dendritic cells transduced with Ad-RTS-mIL-12; experiment: Activator Drug dose-dependent IL-12 expression in mouse DC transduced with Ad-RTS-mIL-12; type: cell-based; conditions: varying doses of Activator Drug
[7] = tested on: DC infected with rAd.RheoIL12 (DC.RheoIL12); experiment: IL-12p70 secretion by adenovirus-infected murine BM-derived DC (ELISA); type: cell-based, mouse
Description: DCs were generated from murine bone marrow as previously described (Tatsumi et al., 2003). Briefly, wild-type or EGFP Tg mouse BM was cultured in CM supplemented with 1000 units/ml recombinant murine granulocyte/macrophage colony-stimulating factor and recombinant mIL-4 (Peprotech, Rocky Hill, N.J.) at 37° C. in a humidified, 5% CO2 incubator for 7 days. CD11c^+ DC were then isolated using specific MACSTM beads, per the manufacturer's protocol (Miltenyi Biotec, Auburn, Calif.). CD11c^+ DC produced in this manner were >95% pure based on morphology and co-expression of the CD11b, CD40, CD80, and class I and class II MHC antigens.
Day 7 cultured DC were untreated, were infected with recombinant Ads encoding murine IL-12p70 driven off a constitutive (rAd.cIL12) or inducible (rAd.RheoIL12) promoter, or were infected with mock, control vector rAdψ5, over a range of MOIs. At various time points after this (0-48 h), DC were then cultured in the absence or presence of an activating ligand (10-200 μg/ml) for an additional 24 h prior to analysis of IL-12p70 secretion using a specific ELISA kit (BDPharMingen, San Diego, Calif.; lower level of detection=62.5 pg/ml). […] Alternatively, after 48 h, infected DC were harvested and analyzed for phenotype and for production of IL-12p70 using the ELISA kit (BD-PharMingen, San Diego, Calif.), with a lower level of detection of 62.5 pg/ml. […]

[8] = tested on: GL261 gliomas; experiment: Intracranial GL261 glioma survival, i.t. transduced DC plus i.p. RG-115830; type: in vivo, mice; conditions: at 50 days; DC expressing IFN-alpha and IL-12 under RTS, RG-115830 intra-peritoneal
Description: Abbreviations in this figure are as follows: Ad-IFNa is Adenoviral vector constitutively expressing IFN-alpha; Ad-RTS-IFNa is Adenoviral vector encoding IFN-alpha under RTS control; Ad-RTS-IFNa no ligand is Adenoviral vector containing RTS and IFN-alpha where no activator ligand was present; Ad-IFNa/IL-12 corresponds to DC transduced with Adenoviral vectors encoding IFN-alpha and IL-12; and Ad-RTS-IFNa/IL-12 corresponds to DC transduced with two Adenoviral vectors encoding IFN-alpha and IL-12 under RTS control.
In this example, dendritic cells were isolated from bone marrow, transduced with the Adenoviral constructs depicted in FIG. 7, and mice bearing syngeneic intracranial GL261 gliomas were intratumorally injected with engineered dendritic cells; and RG-115830 was injected intra-peritoneal. […] The data reveal that ligand induced expression of IFN-alpha and IL-12 through activation of the RTS with RG-115830 ligand promoted 75 percent survival at 50 days of GL261 glioma mice; as compared to IFN-alpha expression alone. Furthermore, the control provided by the RheoSwitch and ligand promoted enhanced survival.

[9] = tested on: B16 melanoma; experiment: Established s.c. B16 melanoma, i.t. DC plus i.p. RG-115830; type: in vivo, C57BL/6 mice; conditions: RG-115830 alone, or DC.RheoIL12 in the absence of RG-115830
Description: B6 mice received subcutaneous injection of 1×10^5 B16 melanoma cells in the right flank on day 0. On day 7, tumors reached a size of approximately 20-30 mm^2 and mice were treated with i.t. injections of PBS or 1×10^6 control vs. adenoviral transduced (MOI=100) DC in a total volume of 50 μl of PBS. Mice also received i.p. injections of 200 μg RG-115830 (in 50 μl DMSO) vs. DMSO carrier control that were initiated at 0 h, 24 h or 48 h post-DC administration, as indicated. After initiation, mice received a total of 5 consecutive daily intraperitoneal injections of RG-115830 at this dose. In additional experiments, ligand was administered beginning on the day of DC injection and then terminated 1, 3 or 5 days post-DC injection to discern whether early cessation of IL-12p70 transgene promotion reduced the therapeutic benefits of this approach. In all cases, tumor size was assessed every 3 or 4 days and recorded in mm^2 by determining the product of the largest perpendicular diameters measured by vernier calipers. Data are reported as the average tumor area±SD. All animal cohorts contained 5 mice/group.
B16 melanoma cells (1×10^5) were injected s.c. in the […] flank of syngenic H-2^b B6 mice and allowed to establish. On day 7, mice were randomized into cohorts of 5 animals each, with a mean cohort tumor size of approximately 20-30 mm^2. […]

| SMILES | IL12 expression [1] | IL-12 expression [2] | efficacy by route of ligand administration ([3]; DC-SP1 i.t. therapy, ligand 30 mg/kg/day) | ligand dose giving optimal anti-tumor effects ([3]; DC-SP1 i.t. therapy, ligand i.p.) [mg/kg/day] | efficacy by route in mouse melanoma model ([3]; DCs transduced with murine IL-12 under RTS) | B16 tumor growth, ligand alone ([3]; no DC, any dose or any route) | activation of the RTS [4] | tumor regression ([5]; 13 days in a row with 10^7 dendritic cells) | suppression of tumor growth, 13 days instead of 6 days of ligand ([5]; i.p. 30 mg/kg/day with AdDCs) | anti-tumor dose response, oral ligand ([5]; oral gavage in Labrasol for 9 and 12 days) | oral dose with the greatest responses ([5]; orally for 12 days, Labrasol) [mg/kg/day] | tumor growth, ligand alone ([5]; without AdDCs) | IL-12 production [6] | RG-115830 concentration for optimal infected DC production of IL-12p70 ([7]; MOI of 100) [µg/mL] | IL-12p70 production after delayed provision of RG-115830 ([7]; delayed for up to 48 h compared to 0 h timepoint) | survival [8] [%] | therapeutic benefit [9] |
| --- | --- | --- | --- | --- | --- | --- | --- | --- | --- | --- | --- | --- | --- | --- | --- | --- | --- |
| CCC[C@@H](N(NC(=O)c1cccc(OC)c1CC)C(=O)c1cc(C)cc(C)c1)C(C)(C)C [RG-115932, (R)-3,5-Dimethyl-benzoic acid N-(1-tert-butyl-butyl)-N′-(2-ethyl-3-methoxy-benzoyl)-hydrazide] | induction of IL12 expression in response to the activator drug in a dose dependent way | induced IL-12 expression in these transduced human DCs | equally effective if ligand is administered by i.p. injection, oral gavage, or diet admix | > 30 | effective in intraperitoneal and oral routes | had no impact on B16 tumor growth | capable of activating the RTS | effective in causing tumor regression over a 25 day period | significantly more robust suppression of tumor growth | dose dependent anti-tumor effect | 50 | no effect | produced IL-12 in a dose dependent manner | – | – | – | – |
| CCCC(N(NC(=O)c1cccc(OC)c1CC)C(=O)c1cc(C)cc(C)c1)C(C)(C)C (centres unmarked) [RG-115830, 3,5-Dimethyl-benzoic acid N-(1-tert-butyl-butyl)-N′-(2-ethyl-3-methoxy-benzoyl)-hydrazide] | – | – | – | – | – | – | – | – | – | – | – | – | – | 50 to 200 | did not result in any significantly reduced production of IL-12p70 | 75 | failed to yield any therapeutic benefit |
